Measured values: publication PMC12566191, “Isolation and In Vitro Activity of Sesquiterpene Lactones from Eremanthus crotonoides as SARS-CoV-2 Protease Inhibitors and Cytotoxic Agents” (Molecules, 2025)
Values joined by “and” are separate entries in the source; they are usually repeats but may differ in a detail not shown here. Identical values can stand only once. “Also recorded” adds a separate entry of the source. Like-named read-outs stand apart in the source and are kept apart here.

Columns and labels:
[1] = Cell viability, MTT assay, PC-3; assay type: cell-based, human; conditions: human
Protocol: (§1) The cytotoxicity of crude extract and isolated compounds were evaluated against the human tumor cell lines PC-3 (prostatic carcinoma cell) and HCT-116 (colorectal carcinoma cell). Cell maintenance was performed as described in the literature. The extract and isolated compounds were tested at the concentrations of 0.05 and 50 μg/mL and 0.01 and 10 μM, respectively. Saponin digitonin (100 µM), a very potent permeabilizer of cell membranes, was used as positive control to induce 0% cell viability after 48 h of treatment.
(§2) Cell viability was determined by MTT and crystal violet (CV) assays after 48 h of incubation. Absorbance was measured using an automated microplate reader at 540 nm with a reference wavelength of 670 nm. Results are expressed as percentages relative to untreated control cultures.

[2] = Cell viability, crystal violet (CV) assay, PC-3; assay type: cell-based; conditions: human
Protocol: as §1, §2

[3] = Cell viability, MTT assay, HCT-116; assay type: cell-based, human; conditions: human
Protocol: as §1, §2

[4] = Cell viability, crystal violet (CV) assay, HCT-116; assay type: cell-based; conditions: human
Protocol: as §1, §2

[5] = molecular target: Recombinant SARS-CoV-2 PLpro (Severe acute respiratory syndrome coronavirus 2, UniProt P0DTD1); test: FRET enzymatic inhibition assay, PLpro; assay type: biochemical
[6] = molecular target: Recombinant SARS-CoV-2 3CLpro (Severe acute respiratory syndrome coronavirus 2, UniProt P0DTD1); test: FRET enzymatic inhibition assay, 3CLpro; assay type: biochemical; conditions: for inhibition at 1000 µM: read-out: Maximum inhibition (%) 3CLpro
[7] = system: clinical isolate of S. aureus; design: method as in doi:10.1007/s43450-021-00176-z; conditions: cited from earlier work
S. aureus = system: S. aureus; design: method as in doi:10.1007/s43450-021-00176-z; conditions: cited from earlier work
glioblastoma multiforme = system: glioblastoma multiforme; design: method as in doi:10.1590/S0102-695X2012005000131; conditions: cited from earlier work
[8] = system: PC-3 (prostatic carcinoma cell); test: Cell viability, MTT assay, PC-3; assay type: cell-based, human; conditions: 10 µM (goyazensolide: ≤ 10 µM), 48 h, MTT and CV assays
Protocol: as §1, §2

[9] = system: HCT-116 (colorectal carcinoma cell); test: Cell viability, MTT assay, HCT-116; assay type: cell-based, human; conditions: 10 µM (goyazensolide: ≤ 10 µM), 48 h, MTT and CV assays
Protocol: as §1, §2

[10] = maximum inhibition conc. 1,000 µM (highest concentration tested)
[11] = HCT-116 colorectal carcinoma cells
[12] = 125 µg/mL (101.7 µM), positive control

C=C1C(=O)OC2C=C(CO)C3=CC(=O)C(C)(CC(OC(=O)C(C)=CC)C12)O3 (stereo not drawn) [Centratherin, centratherin] gave a viability at 48 h, 0.01 µM [1] of 100 ± 13.5%, a viability at 48 h, 10 µM [1] of 0% and a viability at 48 h, 0.01 µM [2] of 100 ± 3.6%. It also gave a viability at 48 h, 10 µM [2] of 0%, a viability at 48 h, 0.01 µM [3] of 100 ± 9.6% and a viability at 48 h, 10 µM [3] of 0%. For the same molecule, the viability at 48 h, 0.01 µM [4] was 114 ± 5.6%, the viability at 48 h, 10 µM [4] was 3.5 ± 9.1% and the IC50 ([5]; Apparent IC50 PLpro) was 12 µM and 11.9 µM. The “Maximum inhibition (%) PLpro” value [5, 10] was 97%, the inhibition at 1000 µM ([5]; read-out: Maximum inhibition (%) PLpro, maximum inhibition conc. 1,000 µM (highest concentration tested)) was 96.77 ± 0.3% and the IC50 ([6]; Apparent IC50 3CLpro) was 165 µM. The inhibition at 1000 µM [6] was 89.5 ± 0.97%, the “Concentration inhibiting clinical isolate of S. aureus” value [7] was 32 µg/mL and the “Concentration with antibiofilm activity” value (S. aureus) was 128 µg/mL. The “Cytotoxic activity against glioblastoma multiforme” value (glioblastoma multiforme) was “exhibited cytotoxic activity” and the “IC50 values against glioblastoma multiforme, compared with doxorubicin” value (glioblastoma multiforme) was “comparable to the commercial anticancer drug doxorubicin”.
With C=C(C)C(=O)OC1CC2(C)OC(=CC2=O)C(CO)=CC2OC(=O)C(=C)C21 (stereo not drawn) [Goyazensolide, goyazensolide] the viability at 48 h, 0.01 µM ([1]; PC-3 prostatic carcinoma cells) was 86.6 ± 4.7%, the viability at 48 h, 10 µM ([1]; PC-3 prostatic carcinoma cells) was 100 ± 18% and the “Reduction of cell viability, PC-3” value [8] was “no noteworthy effects; also recorded: unable to decrease cell viability; also recorded: no such effect”. For the same molecule, the viability at 48 h, 0.01 µM ([2]; PC-3 prostatic carcinoma cells) was 89.5 ± 2.8%, the viability at 48 h, 10 µM ([2]; PC-3 prostatic carcinoma cells) was 91.4 ± 1.7% and the viability at 48 h, 0.01 µM [3, 11] was 99.6 ± 5.9%. The viability at 48 h, 10 µM [3, 11] was 100 ± 5.8%, the “Reduction of cell viability, HCT-116” value [9] was “no noteworthy effects; also recorded: unable to decrease cell viability; also recorded: no such effect” and the viability at 48 h, 0.01 µM [4, 11] was 113 ± 4%. For the same molecule, the viability at 48 h, 10 µM [4, 11] was 92.1 ± 9%, the inhibition at 1000 µM ([5]; maximum inhibition conc. 1,000 µM (highest concentration tested), read-out: Maximum inhibition (%) PLpro) was 80.7 ± 5.9% and the IC50 ([5]; read-out: Apparent IC50 PLpro) was 317 µM. For the same molecule, the “Maximum inhibition (%) 3CLpro” value [6, 10] was 96%, the inhibition at 1000 µM [6, 10] was 96.14 ± 0.01% and the IC50 ([6]; read-out: Apparent IC50 3CLpro) was 71.1 µM and 71 µM.
C[C@@H]1CC[C@@]2(OC1)O[C@H]1[C@@H](O)[C@H]3[C@@H]4CC[C@H]5C[C@@H](O[C@@H]6O[C@H](CO)[C@H](O[C@@H]7O[C@H](CO)[C@@H](O)[C@H](O[C@@H]8OC[C@@H](O)[C@H](O)[C@H]8O)[C@H]7O[C@@H]7O[C@H](CO)[C@H](O)[C@H](O[C@@H]8O[C@H](CO)[C@@H](O)[C@H](O)[C@H]8O)[C@H]7O)[C@H](O)[C@H]6O)[C@H](O)C[C@]5(C)[C@H]4CC[C@]3(C)[C@H]1[C@@H]2C [DGTN, digitonin, reference compound] gave a viability at 48 h, 101.7 µM [1, 12] of 0%, a viability at 48 h, 101.7 µM [2, 12] of 0% and a viability at 48 h, 101.7 µM [3, 12] of 0%. For the same molecule, the viability at 48 h, 101.7 µM [4, 12] was 0%.
